Target: GluN1/GluN2B Receptors (Rattus norvegicus, UniProt P35439+Q00960)
Test: Two-electrode voltage-clamp IC50 determination at GluN1/GluN2B receptors expressed in Xenopus oocytes
Type: cell-based, Human or Rat
Method: Determination of IC50 Values of GluN1/GluN2B Receptors Expressed in Xenopus oocytes in Human or Rat Stage V and VI oocytes were surgically removed from the ovaries of large, well-fed and healthy Xenopus laevis anesthetized with 3-amino-benzoic acid ethyl ester (3 gm/l). Oocytes were injected within 24 hrs of isolation with 3-5 ng of GluN1 subunit cRNA and 7-10 ng of GluN2 cRNA subunit in a 50 nl volume, and incubated in Barth's solution at 18° C. for 2-7 d. Glass injection pipettes had tip sizes ranging from 10-20 microns, and were backfilled with mineral oil. Two electrode voltage-clamp recordings were made 2-7 days post-injection. Oocytes were placed in a dual-track plexiglass recording chamber and dual recordings were made at room temperature (23° C.) using two Warner OC725C two-electrode voltage clamp amplifiers, arranged as recommended by the manufacturer. Glass microelectrodes (1-10 Megaohms) were filled with 300 mM KCl (voltage electrode) or 3 M KCl (current electrode). The bath clamps communicated across silver chloride wires placed into each side of the recording chamber, both were assumed to be at a reference potential of 0 mV. Oocytes were perfused with a solution comprised of (in mM) 90 NaCl, 1 KCl, 10 HEPES, 10 EDTA and 0.5 BaCl2; pH was adjusted by addition of 1-3 M NaOH or HCl. Oocytes were recorded under voltage clamp at −40 mV. Final concentrations for glutamate and glycine were 50 μM and 30 μM, respectively. Concentration-response curves for experimental compounds were obtained by applying maximal glutamate/glycine, followed by glutamate/glycine plus variable concentrations of experimental compounds. Dose response curves consisting of 4 to 6 concentrations were obtained in this manner. The baseline leak current at −40 mV was measured before and after recording, and the full recording linearly corrected for any change in leak current. The level of inhibition by applied experimental compounds measured after a 6 min exposure to a compound was expressed as a percent of the initial glutamate response, and averaged together across oocytes from multiple experiments. Results were pooled, and the average percent responses at antagonist concentrations were fit by the equation, Percent Response=(100−minimum)/(1+([conc]/IC50)^nH)+minimum where minimum is the residual percent response in saturating concentration of the experimental compounds, IC50 is the concentration of antagonist that causes half of the achievable inhibition, and nH is a slope factor describing steepness of the inhibition curve. Minimum was constrained to be between zero and 20. Recordings were made at pH 6.9, pH 7.4, and pH 7.6.

Sequence of GluN1/GluN2B Receptors (Q00960 27-1482, other chains not shown): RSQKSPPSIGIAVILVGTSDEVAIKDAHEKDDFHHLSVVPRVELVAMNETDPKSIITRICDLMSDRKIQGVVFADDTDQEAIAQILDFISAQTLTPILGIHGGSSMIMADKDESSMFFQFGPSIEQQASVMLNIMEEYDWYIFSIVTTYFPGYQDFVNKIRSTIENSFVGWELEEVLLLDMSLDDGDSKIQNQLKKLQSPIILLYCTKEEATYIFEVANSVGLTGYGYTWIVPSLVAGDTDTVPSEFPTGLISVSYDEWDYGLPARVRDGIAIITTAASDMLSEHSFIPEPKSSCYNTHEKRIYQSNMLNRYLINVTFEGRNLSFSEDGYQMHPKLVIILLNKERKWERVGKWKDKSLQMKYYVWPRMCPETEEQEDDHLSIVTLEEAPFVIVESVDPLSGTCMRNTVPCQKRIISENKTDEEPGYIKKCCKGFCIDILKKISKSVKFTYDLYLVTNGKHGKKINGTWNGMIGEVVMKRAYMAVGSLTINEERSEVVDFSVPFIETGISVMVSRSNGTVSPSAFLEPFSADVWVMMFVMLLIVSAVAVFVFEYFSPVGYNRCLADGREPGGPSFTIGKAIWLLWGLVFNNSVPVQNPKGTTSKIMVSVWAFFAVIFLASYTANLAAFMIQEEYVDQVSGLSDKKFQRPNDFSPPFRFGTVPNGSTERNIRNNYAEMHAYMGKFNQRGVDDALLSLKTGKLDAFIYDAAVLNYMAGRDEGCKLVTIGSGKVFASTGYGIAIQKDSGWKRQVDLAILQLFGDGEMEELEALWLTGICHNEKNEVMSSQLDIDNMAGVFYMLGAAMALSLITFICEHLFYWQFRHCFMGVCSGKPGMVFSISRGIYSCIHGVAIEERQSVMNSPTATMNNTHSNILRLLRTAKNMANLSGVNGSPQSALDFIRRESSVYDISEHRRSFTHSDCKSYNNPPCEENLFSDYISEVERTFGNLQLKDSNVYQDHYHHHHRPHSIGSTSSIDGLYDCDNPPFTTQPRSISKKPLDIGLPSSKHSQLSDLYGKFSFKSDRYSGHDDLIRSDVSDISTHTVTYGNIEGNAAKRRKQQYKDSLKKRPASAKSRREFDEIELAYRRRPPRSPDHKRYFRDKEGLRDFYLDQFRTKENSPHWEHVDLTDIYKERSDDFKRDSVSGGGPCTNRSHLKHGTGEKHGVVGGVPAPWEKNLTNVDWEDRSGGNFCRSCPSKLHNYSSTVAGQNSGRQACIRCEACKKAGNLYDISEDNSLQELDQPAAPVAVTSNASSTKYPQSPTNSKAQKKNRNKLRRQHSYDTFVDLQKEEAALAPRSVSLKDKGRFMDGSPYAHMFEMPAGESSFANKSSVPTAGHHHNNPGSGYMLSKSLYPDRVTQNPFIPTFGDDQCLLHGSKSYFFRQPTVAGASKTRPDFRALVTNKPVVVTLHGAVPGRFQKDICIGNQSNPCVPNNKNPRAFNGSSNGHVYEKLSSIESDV

Structure (SMILES)	nH (slope factor of the inhibition curve) (pH 6.9)	nH (slope factor of the inhibition curve) (pH 7.6)
CCCc1ccc(N2CCN(CC(O)C=Cc3ccc4[nH]c(=O)ccc4c3)CC2)cc1 (racemic) [Compound 10, (rac-)(E)-6-(3-hydroxy-4-(4-(4-propylphenyl)piperazin-1-yl)but-1-en-1-yl)quinolin-2(1H)-one]	−0.90	−1.24
O=C1CCc2cc(/C=C/C(CO)N3CCN(c4ccc(Cl)cc4)CC3)ccc2N1 (racemic) [Compound 23, (rac)-(E)-6-(3-(4-(4-chlorophenyl)piperazin-1-yl)-4-hydroxybut-1-en-1-yl)-3,4-dihydroquinolin-2(1H)-one]	−1.09	−0.60
CCCc1ccc(N2CCN(C[C@@H](O)/C=C/c3ccc4[nH]c(=O)ccc4c3)CC2)cc1 [Compound 11, (S,E)-6-(3-hydroxy-4-(4-(4-propylphenyl)piperazin-1-yl)but-1-en-1-yl)quinolin-2(1H)-one]	−0.87	−0.52
O=c1ccc2cc(/C=C/[C@H](O)CN3CCN(c4ccc(C5CC5)cc4)CC3)ccc2[nH]1 [Compound 13, (S,E)-6-(4-(4-(4-cyclopropylphenyl)piperazin-1-yl)-3-hydroxybut-1-en-1-yl)quinolin-2(1H)-one]	−0.81	−0.80
O=C1COc2cc(/C=C/[C@@H](O)CN3CCN(c4ccc(C(F)(F)F)cc4)CC3)ccc2N1 [Compound 15, (R,E)-7-(3-hydroxy-4-(4-(4-(trifluoromethyl)phenyl)piperazin-1-yl)but-1-en-1-yl)-2H-benzo[b][1,4]oxazin-3(4H)-one]	−0.88	−1.04
O=C1COc2cc(/C=C/[C@H](O)CN3CCN(c4ccc(C(F)(F)F)cc4)CC3)ccc2N1 [Compound 16, (S,E)-7-(3-hydroxy-4-(4-(4-(trifluoromethyl)phenyl)piperazin-1-yl)but-1-en-1-yl)-2H-benzo[b][1,4]oxazin-3(4H)-one]	−0.67	−1.29
O=C1NCc2cc(/C=C/[C@@H](O)CN3CCN(c4ccc(C5CC5)cc4)CC3)ccc2N1 [Compound 18, (R,E)-6-(4-(4-(4-cyclopropylphenyl)piperazin-1-yl)-3-hydroxybut-1-en-1-yl)-3,4-dihydroquinazolin-2(1H)-one]	−0.78	−1.28
CC(C)c1ccc(N2CCN(C[C@@H](O)/C=C/c3ccc(NC(N)=O)cc3)CC2)cc1 [Compound 36, (S,E)-1-(4-(3-Hydroxy-4-(4-(4-isopropylphenyl)piperazin-1-yl)but-1-en-1-yl)phenyl)urea]	−0.82	−1.05
NC(=O)Nc1ccc(/C=C/[C@@H](O)CN2CCN(c3ccc(C(F)(F)F)cc3)CC2)cc1 [Compound 38, (R,E)-1-(4-(3-Hydroxy-4-(4-(4-(trifluoromethyl)phenyl)piperazin-1-yl)but-1-en-1-yl)phenyl)urea]	−0.64	−0.69
NC(=O)Nc1ccc(/C=C/[C@H](O)CN2CCN(c3ccc(C(F)(F)F)cc3)CC2)cc1 [Compound 39, (S,E)-1-(4-(3-Hydroxy-4-(4-(4-(trifluoromethyl)phenyl)piperazin-1-yl)but-1-en-1-yl)phenyl)urea]	−0.43	−0.69
O=C1NCc2cc(/C=C/[C@@H](O)CN3CCN(c4ccc(C(F)(F)F)cc4)CC3)ccc2N1 [Compound 41, (R,E)-6-(3-hydroxy-4-(4-(4-(trifluoromethyl)phenyl)piperazin-1-yl)but-1-en-1-yl)-3,4-dihydroquinazolin-2(1H)-one]	−0.64	−1.04
O=C1CCc2cc(/C=C/[C@@H](CO)N3CCN(c4ccc(C(F)(F)F)cc4)CC3)ccc2N1 [Compound 43, (S,E)-6-(4-Hydroxy-3-(4-(4-(trifluoromethyl)phenyl)piperazin-1-yl)but-1-en-1-yl)-3,4-dihydroquinolin-2(1H)-one]	−0.67	−1.09
O=C1CCc2cc(/C=C/[C@@H](O)CN3CCN(c4ccc(C(F)(F)F)cn4)CC3)ccc2N1 [Compound 45, (R,E)-6-(3-Hydroxy-4-(4-(5-(trifluoromethyl)pyridin-2-yl)piperazin-1-yl)but-1-en-1-yl)-3,4-dihydroquinolin-2(1H)-one]	−0.80	−0.80

Other lines, results leading:

nH (slope factor of the inhibition curve) (pH 6.9)	nH (slope factor of the inhibition curve) (pH 7.6)	Structure (SMILES)
−0.81	−1.28	O=C1CCc2cc(/C=C/C(O)CN3CCN(c4ccc(Cl)cc4)CC3)ccc2N1 (racemic) [Compound 21, (rac)-(E)-6-(4-(4-(4-Chlorophenyl)piperazin-1-yl)-3-hydroxybut-1-en-1-yl)-3,4-dihydroquinolin-2(1H)-one]
−0.61	−1.22	CC(C)c1ccc(N2CCN(C[C@@H](O)/C=C/c3ccc4c(c3)CCC(=O)N4)CC2)cc1 [Compound 25, (S,E)-6-(3-Hydroxy-4-(4-(4-isopropylphenyl)piperazin-1-yl)but-1-en-1-yl)-3,4-dihydroquinolin-2(1H)-one]
−0.95	−0.64	O=C1CCc2cc(/C=C/[C@H](O)CN3CCN(c4ccc(Cl)cc4)CC3)ccc2N1 [Compound 27, (S,E)-6-(4-(4-(4-Chlorophenyl)piperazin-1-yl)-3-hydroxybut-1-en-1-yl)-3,4-dihydro-quinolin-2(1H)-one]
−0.54	−1.31	CC(C)c1ccc(N2CCN(C[C@H](O)/C=C/c3ccc4c(c3)CCC(=O)N4)CC2)cc1 [Compound 29, (R,E)-6-(3-Hydroxy-4-(4-(4-isopropylphenyl)piperazin-1-yl)but-1-en-1-yl)-3,4-dihydroquinolin-2(1H)-one]
−0.64	−0.90	O=C1CCc2cc(/C=C/[C@@H](O)CN3CCN(c4ccc(Cl)cc4)CC3)ccc2N1 [Compound 31, (R,E)-6-(4-(4-(4-Chlorophenyl)piperazin-1-yl)-3-hydroxybut-1-en-1-yl)-3,4-dihydroquinolin-2(1H)-one]
−0.56	−0.65	O=C1CCc2cc(/C=C/[C@H](O)CN3CCN(c4ccc(C(F)(F)F)cc4)CC3)ccc2N1 [Compound 33, (S,E)-6-(3-Hydroxy-4-(4-(4-(trifluoromethyl)phenyl)piperazin-1-yl)but-1-en-1-yl)-3,4-dihydroquinolin-2(1H)-one]
−0.68	−0.75	O=C1CCc2cc(/C=C/[C@@H](O)CN3CCN(c4ccc(C(F)(F)F)cc4)CC3)ccc2N1 [Compound 35, (R,E)-6-(3-Hydroxy-4-(4-(4-(trifluoromethyl)phenyl)piperazin-1-yl)but-1-en-1-yl)-3,4-dihydroquinolin-2(1H)-one]

Source: patent publication US20140275060A1, “COMPOUNDS FOR THE TREATMENT OF NEUROLOGIC DISORDERS” (priority 2013, published 2014)
